Converted amounts (≈) assume the structure as drawn. The source made the active and inactive calls. No cut-off for these calls is given here.
Key:
[1] = Chemical stability in buffer; type: physicochemical
[2] = Antiproliferative activity against human K562 cells after 72 hrs by electronic cell analysis; type: cell-based
[3] = Cytotoxicity against human HepG2 cells after 24 hrs by MTT assay; type: cell-based
[4] = Cytotoxicity against human HEK293 cells after 24 hrs by MTT assay; type: cell-based
[5] = test system: Liver microsomes; experiment: Metabolic stability in human liver microsomes; type: ADME, Microsome
[6] = test system: Plasma; experiment: Metabolic stability in mouse plasma; type: ADME, cell-free
[7] = test system: Mycolicibacterium smegmatis; experiment: Antimycobacterial activity against Mycobacterium smegmatis 700084 after 48 hrs by broth microdilution assay; type: functional; conditions: Mycolicibacterium smegmatis, 700084, 48 h
[8] = Cytotoxicity against human HeLa cells after 72 hrs by methylene blue staining; type: cell-based
[9] = test system: Mycolicibacterium fortuitum; experiment: Antimycobacterial activity against Mycobacterium fortuitum B; type: functional
[10] = test system: Plasma; experiment: Metabolic stability in human plasma; type: ADME, cell-free
[11] = Antiproliferative activity against human HUVEC cells after 72 hrs by methylene blue staining; type: cell-based
[12] = test system: Liver; experiment: Metabolic stability in mouse liver microsomes; type: ADME, Microsome
[13] = Kinetic solubility of the compound at pH 7.4; type: physicochemical; conditions: buffer; for solubility kinetic: read-out: Kinetic_solubility
[14] = Therapeutic index, ratio of GI50 for human K562 cells to MIC for Mycobacterium smegmatis 700084; type: cell-based; conditions: read-out: TI
[15] = Therapeutic index, ratio of CC50 for human HeLa cells to MIC for Mycobacterium smegmatis 700084; type: cell-based; conditions: read-out: TI
[16] = test system: Mycolicibacterium smegmatis; experiment: Ratio of MIC for Mycobacterium smegmatis 700084 in […] to MIC for Mycobacterium smegmatis 700084 in MHB medium; type: functional
[17] = Therapeutic index, ratio of GI50 for human HUVEC cells to MIC for Mycobacterium smegmatis 700084; type: cell-based; conditions: read-out: TI
[18] = test system: Mycobacterium tuberculosis; experiment: Antimycobacterial activity against Mycobacterium tuberculosis H37Rv expressing GFP; type: functional
[19] = test system: Mycolicibacterium aurum; experiment: Antimycobacterial activity against Mycobacterium aurum SB66; type: functional, organism-based
[20] = test system: Mycobacterium tuberculosis; experiment: Ratio of isoniazid MIC to compound MIC for Mycobacterium tuberculosis H37Rv; type: functional

SMILES	Stability [1]	GI50 at 72 h [2]	CC50 at 24 h [3]	CC50 at 24 h [4]	Stability [5]	Stability [6]	MIC [7]	CC50 at 72 h [8]	MIC [9]	Stability [10]	GI50 at 72 h [11]	Stability [12]	solubility kinetic [13]	other results
COC(=O)C1CN(c2nc(=O)c3cc(C(F)(F)F)cc([N+](=O)[O-])c3s2)CCC12OC[C@H](C)O2 (some centres undefined)	98%	22 µM	> 10 µM	> 10 µM	81%	56%	0.015 µg/mL (≈ 0.0306 µM)	36 µM	0.0125 µg/mL (≈ 0.0255 µM)	51%	16 µM	29%		
O=c1nc(N2CCC(c3ccccc3)CC2)sc2c([N+](=O)[O-])cc(C(F)(F)F)cc12	82%	> 50 µM	> 10 µM	> 10 µM	120%	71%	0.004 µg/mL (≈ 0.00919 µM)	> 50 µM	0.0125 µg/mL (≈ 0.0287 µM)	96%	> 50 µM	75%	0.06 µM (≈ 0.0261 µg/mL)	selectivity ratio [14]: > 12500; selectivity ratio [15]: > 12500; Ratio [16]: 3; selectivity ratio [17]: > 12500
CCCOCC1COC2(CCN(c3nc(=O)c4cc(C(F)(F)F)cc([N+](=O)[O-])c4s3)CC2)O1 (centres undefined)	99%	> 50 µM	> 10 µM	> 10 µM	6%	103%	0.004 µg/mL (≈ 0.00817 µM)	43 µM	0.0031 µg/mL (≈ 0.00633 µM)	98%	> 50 µM	9%		
C[C@H]1COC2(CCN(c3nc(=O)c4cc(C(F)(F)F)cc([N+](=O)[O-])c4s3)CC2)O1 [BTZ-043]	98%	11 µM	> 10 µM	> 10 µM	98%	97%	0.008 µg/mL (≈ 0.0185 µM)	> 50 µM	0.00156 µg/mL (≈ 0.00362 µM)	107%	8 µM	45%	6.8 µM (≈ 2.93 µg/mL)	MIC [18]: 0.001 µg/mL (≈ 0.00232 µM); Activity [19]: inactive; selectivity ratio [14]: 1190; selectivity ratio [15]: > 6250; Ratio [20]: 20; selectivity ratio [17]: 1190
CN(c1nc(=O)c2cc(C(F)(F)F)cc([N+](=O)[O-])c2s1)[C@H]1CCN(Cc2ccccc2)C1	96%	30 µM	> 10 µM	> 10 µM	6%	114%	0.004 µg/mL (≈ 0.00861 µM)	38 µM		92%	18 µM	7%	2.97 µM (≈ 1.38 µg/mL)	
O=c1nc(NCc2ccco2)sc2c([N+](=O)[O-])cc(C(F)(F)F)cc12													1.63 µM (≈ 0.605 µg/mL)	
O=c1nc(N2CCN(c3nccs3)CC2)sc2c([N+](=O)[O-])cc(C(F)(F)F)cc12	98%		> 10 µM	> 10 µM	42%	111%	0.25 µg/mL (≈ 0.564 µM)		0.025 µg/mL (≈ 0.0564 µM)	99%		13%		
O=c1nc(N2CCC(F)(F)CC2)sc2c([N+](=O)[O-])cc(C(F)(F)F)cc12	101%		> 10 µM	> 10 µM	61%	92%	0.25 µg/mL (≈ 0.632 µM)		> 0.1 µg/mL	64%		80%	8.1 µM (≈ 3.2 µg/mL)	
Cc1ccc(CNc2nc(=O)c3cc(C(F)(F)F)cc([N+](=O)[O-])c3s2)n1C	14%	21 µM	> 10 µM	> 10 µM	28%	93%	0.125 µg/mL (≈ 0.314 µM)	48 µM	0.05 µg/mL (≈ 0.126 µM)	108%	17 µM	37%		
CN(Cc1ccoc1)c1nc(=O)c2cc(C(F)(F)F)cc([N+](=O)[O-])c2s1														Kinetic_solubility [13]: soluble
CN(C)C(=O)C1CCN(c2nc(=O)c3cc(C(F)(F)F)cc([N+](=O)[O-])c3s2)CC1														Kinetic_solubility [13]: soluble
COC(=O)[C@@H]1OC2(CCN(c3nc(=O)c4cc(C(F)(F)F)cc([N+](=O)[O-])c4s3)CC2)O[C@H]1c1ccccc1	82%	> 50 µM	> 10 µM	> 10 µM		88%	0.015 µg/mL (≈ 0.0272 µM)	> 50 µM	0.00625 µg/mL (≈ 0.0113 µM)	90%	> 50 µM			
Cc1ccc(CNc2nc(=O)c3cc(C(F)(F)F)cc([N+](=O)[O-])c3s2)o1													1.82 µM (≈ 0.701 µg/mL)	
CN(C)c1ccc(CN(C)c2nc(=O)c3cc(C(F)(F)F)cc([N+](=O)[O-])c3s2)cc1	95%	> 50 µM	> 10 µM	> 10 µM	6%	104%	0.001 µg/mL (≈ 0.00228 µM)	> 50 µM	0.00625 µg/mL (≈ 0.0143 µM)	90%	> 50 µM	8%		selectivity ratio [14]: > 50000; selectivity ratio [15]: > 50000; selectivity ratio [17]: > 50000
CN(C(=O)CN1CCN(c2nc(=O)c3cc(C(F)(F)F)cc([N+](=O)[O-])c3s2)CC1)c1ccccc1	78%	30 µM	> 10 µM	> 10 µM	13%	115%	0.015 µg/mL (≈ 0.0296 µM)	39 µM	0.0125 µg/mL (≈ 0.0246 µM)	95%	18 µM	2%	11.9 µM (≈ 6.04 µg/mL)	
O=c1nc(NCc2ccc3c(c2)OCCO3)sc2c([N+](=O)[O-])cc(C(F)(F)F)cc12	91%	37 µM	> 10 µM	> 10 µM	43%	114%	0.004 µg/mL (≈ 0.0091 µM)	41 µM	0.012 µg/mL (≈ 0.0273 µM)	86%	20 µM	32%		
CCN(CCN(C)C)c1nc(=O)c2cc(C(F)(F)F)cc([N+](=O)[O-])c2s1													10.6 µM (≈ 4.14 µg/mL)	
O=C(c1ccoc1)N1CCN(c2nc(=O)c3cc(C(F)(F)F)cc([N+](=O)[O-])c3s2)CC1													21.8 µM (≈ 9.91 µg/mL)	
